Measured values published in US20240228542A1, “LYTIC DOMAIN FUSION CONSTRUCTS, CHECKPOINT INHIBITORS, AND METHODS OF MAKING AND USING SAME” (A28 Therapeutics Inc., priority 2020, published 2024).
Read-outs that look alike come from different tables or passages of the source.

Tests used:
[1] = system: NIH:3T3; format: cell-based, mouse; settings: noncancerous cell line 3T3
Method: The melanoma cell line studied was MDA-MB-435S (estrogen receptor alpha negative), breast cancer cell lines MCF-7 and T47D (estrogen receptor alpha positive), ovarian cancer cell lines (OVCAR-3 and SKOV-3), prostate cancer (LNCaP), the non-malignant breast epithelial cell line MCF-10A and the mouse fibroblast cell line NIH:3T3.
Cells were seeded into 96 well plates at a density of 10,000 cells/well. […] Controls contained USP saline or 0.1% TritonX-100™ as reference for 0 and 100% cell death, respectively. Incubations were terminated by removing the culture media after 2 minutes, 5 minutes, 15 minutes, 30 minutes, 1 hour, 2 hours, 6 hours, 24 and 48 hours. Cell viability was assessed through formazan conversion assay (MTT assay, (CellTiter 96 Aqueous One, Promega # G3582). Formazan conversion was determined using a BioRad Benchmark Plus microplate spectrophotometer dual wavelengths at 490/630 nm at room temperature).
Data were calculated as fraction of absorption in TritonX-100™ containing wells representing 100% cell death versus 0% cell death in saline containing wells. Cytotoxicity was determined as ICso using GraphPad Prism version 5.01 for Windows, GraphPad Software, San Diego California USA according to the program for sigmoidal dose response with variable slope using constraint values of 0 and 100%. 4 wells of each individual set of two 96 well plates were compared and analyzed. […]

[2] = system: PC-3 xenograft; test: PC-3 prostate cancer xenograft; format: in vivo, Nu/Nu mice; settings: for tumor growth: PC-3 xenograft, CLIP71 5 mg/kg
Method: In brief, Nu/Nu male mice, outbred strain, age 6 weeks (Charles River) were injected subcutaneously with a PC-3 cells/Matrigel suspension (1×10^6 cells/mouse). Treatment was started on day 15 after tumor cell injection when the tumors were established and continued on days 22 and 29. The doses for the 3 weekly injections were 2, 0.2 and 0.02 mg/kg body weight, given as a bolus single intravenous injection via lateral tail vein.
A group of 12 tumor bearing mice was sacrificed on day 15 and served as baseline group. All mice were necropsied 35 and 36 days after tumor cell injection. Tumor volumes and bodyweights were recorded twice weekly during the study, as well as overall veterinarian examination of mice was conducted.
Primary tumors, liver, kidney, pancreas, heart, lung, and spleen were collected, fixed in formalin and prepared for histological evaluation. Tumor weights were measured at necropsy, part of the tumors were frozen at −80° C. for LH/CG and LHRH receptor assay determination.

[3] = system: MDA-MB-435S.luc cells; format: cell-based, human
Description: This example describes screening for cell toxicity (IC50) and hemolytic activity using a human breast cancer cell line.
The human melanoma cell line MDA-MB-435S.luc, which over expresses chorionic gonadotrophin (CG) and luteinizing hormone-releasing hormone (LHRH) receptors, was used to screen at passage numbers 248-252. The MDA-MB-435S.luc cell line was constructed from the MDA-MB-435S cell line obtained from the American Type Cell Culture Collection by stable transfection with the plasmid PRC/CMV-luc containing the Photinus pyralis luciferase gene and an […] resistance gene by lipofection. The stably transfected cell line was selected using G418 and the clones with the highest expression for the luciferase gene were tested for their LH and LHRH receptor expression.
MDA-MB-435S.luc cells were grown in Leibovitz's L 15 medium, 10% fetal bovine serum, 0.01 mg/ml bovine insulin, 100 IU/ml penicillin, 100 microg/ml streptomycin. The cells were cultured in tight closed flasks. The incubations were conducted using 96 well plates at 10,000 cells per well. Cells were typically seeded into 96 well plates and media was replaced after 48 hours of incubation. Each assay was conducted at increasing concentrations of 0, 0.001, 0.01, 0.05, 0.1, 0.5, 1, 2, 5, 10 and 100 micromolar doses of lytic peptide-binding domain conjugate. Each lytic peptide-binding domain conjugate provided in lyophilized form and was freshly dissolved in saline and added to cells. The duration of incubation was typically 24 h, and cell viability assays were conducted using formazan conversion assays (MTT assay). Controls contained saline or 0.1% triton as reference for 0 and 100% cell death, respectively.
Data were processed and analyzed using Graph Pad Prizm 4™ software (Graph Pad Prizm, Inc). Statistical analysis for significance was determined by a two-tailed Student's T-test. Each study was conducted to achieve an N of at least 8.

[4] = system: MDA-MB-435S.luc xenograft; test: MDA-MB-435S.luc xenograft, βCG fusion constructs; format: in vivo, Nu/Nu mice; settings: vs baseline and saline controls
Method: Female Nu/Nu mice were injected subcutaneously with a MDA-MB-435S.luc/Matrigel HC suspension (1×10^6 cells). In brief, treatment started on day 13 after tumor cell injection and continued on day 19 and 25. […] The doses for weekly injections were 5, 1 and 0.01 mg/kg body weight, given as a bolus single injection.
The effect of cytolytic peptide injections on the primary tumors is illustrated in FIG. 8. In brief, the FIGS. 8A-8C show tumor volume during the course of the study for each individual peptide. FIGS. 8D-8G show tumor characteristics at necropsy; tumor volume (D), tumor weight (E), live tumor cells (F), tumor conditions (G).
Treatment efficacy was calculated as difference between measurements at the beginning of treatment compared to the measurement at the end of study (FIG. 8H-8I). […] Viability of cells in the tumors was determined at the end of the study when tumors were measured for luciferase activity.

[5] = MDA-MB-435S.luc cells, 24 h, MTT, read-out: IC50

“KFAKFAKKFAKFAKKFAK [Phor18, reference compound]” was tested, and the IC50 [1] was over 40000 nM, the tumor growth [2] was “tumor growth was observed” and the IC50 [3, 5] was 2060 ± 500 nM. For the same sequence, the tumor volume [4] was “ineffective in reducing the xenograft volume”.

With “KFAKFAKKFAKFAKKFAKQHWSYGLRPG [Phor18-LHRH]” the IC50 [1] was over 10000 nM, the “lowest concentration with tumor volume reduction compared to saline controls and CLIP71” value ([2]; 22 days after tumor cell injection, p<0.001) was 0.002 mg/kg bodyweight and the “Median Tumor Weight vs Baseline p < 0.05 (doses)” value ([2]; PC-3, 1 × 3 wk, 21 d) was 0.2. For the same sequence, the tumor growth [2] was “effective in arresting tumor growth”, the “Increased in vitro activity fold” value ([3]; IC50 of 33 (Phor21-βCG-ala, 2.31 μM)/IC50 peptide, MDA-MB-435S.luc) was 2.65 fold and the IC50 [3, 5] was 870 ± 110 nM. The IC50 ([3]; MDA-MB-435S.luc cells, places that print μm (Table 2: lytic peptide row + hinge column + ligand section), read-out: IC50) was 870 nM and the IC50 ([3]; MDA-MB-435S.luc melanoma cell line, read-out: IC50 in Human Cancer Cell Lines) was 860 ± 160 nM.
